Patent US20060128654A1, “Pharmaceutical formulation of cytidine analogs and derivatives” (priority 2004, published 2006)

Assay: Chemical stability of decitabine in cyclodextrin solutions (HPLC potency, % of total peak areas at 220 nm)
Type: physicochemical
Method: The chemical stability of decitabine in the cyclodextrin solutions and in the phophate buffer as prepared above was determined. The initial decitabine concentration for all the solutions was 17-18 mg/mL at the beginning of the experiment at 2-8° C.; 9-10 mg/mL at the beginning of the experiment at 25° C. Decitabine potency was assayed by a HPLC method, and expressed as a percentage of total peak areas at 220 nm.

In the case of `Nc1ncn([C@H]2C[C@H](O)[C@@H](CO)O2)c(=O)n1` [decitabine, 5-aza-2′-deoxycytidine], the “Stability in aqueous solution with cyclodextrins as excipients” value (2-8° C., initial 17-18 mg/mL, FIG. 1) is reported as “dramatically improve the stability”, the “Stabilization effect at various HPBCD concentrations” value (25° C., FIG. 3) is reported as “concentration dependent” and the “Stability in aqueous solution with cyclodextrins as excipients” value (25° C., initial 9-10 mg/mL, FIG. 2) is reported as “dramatically improve the stability”.
